Molecular target: T1, Acetylcholinesterase (Bos taurus, UniProt P23795)
T1 sequence (P23795 whole entry): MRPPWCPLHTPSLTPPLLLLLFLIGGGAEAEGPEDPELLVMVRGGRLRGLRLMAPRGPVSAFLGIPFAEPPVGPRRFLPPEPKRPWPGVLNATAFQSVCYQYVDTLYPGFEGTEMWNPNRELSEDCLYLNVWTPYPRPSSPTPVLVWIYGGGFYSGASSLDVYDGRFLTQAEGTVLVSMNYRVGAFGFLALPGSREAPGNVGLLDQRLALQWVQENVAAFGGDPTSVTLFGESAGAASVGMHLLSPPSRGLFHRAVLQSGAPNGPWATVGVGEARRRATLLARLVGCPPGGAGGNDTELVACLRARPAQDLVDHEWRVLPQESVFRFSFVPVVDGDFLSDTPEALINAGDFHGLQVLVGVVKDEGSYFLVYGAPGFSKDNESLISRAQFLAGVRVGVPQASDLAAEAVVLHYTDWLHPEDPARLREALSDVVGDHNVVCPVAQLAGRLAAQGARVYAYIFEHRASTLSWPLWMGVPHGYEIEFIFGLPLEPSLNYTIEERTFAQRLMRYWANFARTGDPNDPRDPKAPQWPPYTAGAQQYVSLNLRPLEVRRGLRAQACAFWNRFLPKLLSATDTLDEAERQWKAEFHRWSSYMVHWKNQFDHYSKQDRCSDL
Assay: Inhibition of bovine acetylcholinesterase

| SMILES | IC50 [µM] |
| --- | --- |
| CC(=O)N1CCCC2=C(C[C@H]3CCC[C@H](CC4=C5CCCN(C)[C@H]5C[C@H](C)C4)N3)C[C@H](C)C[C@@H]21 [CRYPTADINE B] | 18.5 |
| CC(=O)N1CCCC2=C(C[C@H]3CCC[C@H](CC4=C5CCCN(C)[C@H]5C[C@@H](C)C4)N3)C[C@H](C)C[C@@H]21 [CRYPTADINE A] | 106 |

— ChEMBL document CHEMBL1140542, “Cryptadines A and B, novel C27N3-type pentacyclic alkaloids from Lycopodium cryptomerinum” (Bioorg Med Chem, 2007)
